Assay results as given in ChEMBL document CHEMBL4649992, “Discovery of I-BRD9, a Selective Cell Active Chemical Probe for Bromodomain Containing Protein 9 Inhibition” (J Med Chem, 2016).

What was measured:
[1] = biological target: Protein polybromo-1 (Homo sapiens) (UniProt Q86U86); settings: Compound concentration 10.0 uM, Protein concentration 2.0 uM
[2] = biological target: Histone-lysine N-methyltransferase 2A (Homo sapiens) (UniProt Q03164); settings: Compound concentration 10.0 uM, Protein concentration 2.0 uM
[3] = biological target: Tyrosine-protein kinase BAZ1B (Homo sapiens) (UniProt Q9UIG0); settings: Compound concentration 10.0 uM, Protein concentration 2.0 uM
[4] = biological target: Nuclear body protein SP140-like protein (Homo sapiens) (UniProt Q9H930); settings: Compound concentration 10.0 uM, Protein concentration 2.0 uM
[5] = biological target: Histone acetyltransferase KAT2B (Homo sapiens) (UniProt Q92831); settings: Compound concentration 10.0 uM, Protein concentration 2.0 uM
[6] = biological target: Nucleosome-remodeling factor subunit BPTF (Homo sapiens) (UniProt Q12830)
Description: Alphascreen assay. Domain start/stop: S2791-H2911

[7] = biological target: Bromodomain adjacent to zinc finger domain protein 2A (Homo sapiens) (UniProt Q9UIF9); settings: Compound concentration 10.0 uM, Protein concentration 2.0 uM
Peregrin (Homo sapiens) [8] = biological target: T1, Peregrin (Homo sapiens) (UniProt P55201); assay: Alphascreen assay. Domain start/stop: M626-G740; settings: Compound concentration 4.0 uM, Protein concentration 50.0 uM
T1 sequence (whole entry): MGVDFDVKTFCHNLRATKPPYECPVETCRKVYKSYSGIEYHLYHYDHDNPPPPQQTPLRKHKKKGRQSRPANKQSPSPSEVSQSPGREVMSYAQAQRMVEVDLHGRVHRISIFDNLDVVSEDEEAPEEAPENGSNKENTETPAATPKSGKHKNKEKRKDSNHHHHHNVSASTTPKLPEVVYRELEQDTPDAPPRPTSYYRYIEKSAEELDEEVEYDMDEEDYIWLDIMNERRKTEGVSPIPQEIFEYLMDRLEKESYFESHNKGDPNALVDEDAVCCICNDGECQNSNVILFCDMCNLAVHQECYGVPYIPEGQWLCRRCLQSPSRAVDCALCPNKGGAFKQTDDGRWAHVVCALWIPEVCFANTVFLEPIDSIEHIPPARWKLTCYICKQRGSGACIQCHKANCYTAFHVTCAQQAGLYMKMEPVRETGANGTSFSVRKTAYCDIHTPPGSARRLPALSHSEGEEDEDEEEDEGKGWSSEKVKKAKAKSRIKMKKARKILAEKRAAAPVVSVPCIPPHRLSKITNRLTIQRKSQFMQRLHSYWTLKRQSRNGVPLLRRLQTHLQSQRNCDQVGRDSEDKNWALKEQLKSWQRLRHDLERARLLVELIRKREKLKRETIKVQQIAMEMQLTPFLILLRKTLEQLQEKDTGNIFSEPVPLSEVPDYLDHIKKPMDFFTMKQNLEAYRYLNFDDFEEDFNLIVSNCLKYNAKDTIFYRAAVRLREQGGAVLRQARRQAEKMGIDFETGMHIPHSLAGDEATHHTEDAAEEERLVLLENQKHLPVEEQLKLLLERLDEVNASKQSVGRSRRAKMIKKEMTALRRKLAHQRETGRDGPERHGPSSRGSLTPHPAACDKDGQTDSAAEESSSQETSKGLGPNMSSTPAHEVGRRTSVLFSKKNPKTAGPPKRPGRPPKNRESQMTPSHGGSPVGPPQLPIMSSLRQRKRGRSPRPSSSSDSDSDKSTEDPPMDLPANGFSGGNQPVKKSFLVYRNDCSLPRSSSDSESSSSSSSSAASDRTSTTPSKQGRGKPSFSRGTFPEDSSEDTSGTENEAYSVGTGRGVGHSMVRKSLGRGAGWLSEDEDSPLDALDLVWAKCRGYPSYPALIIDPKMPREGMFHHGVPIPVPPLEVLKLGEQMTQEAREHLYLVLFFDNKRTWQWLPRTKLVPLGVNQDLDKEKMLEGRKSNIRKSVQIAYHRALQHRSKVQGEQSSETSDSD

[9] = biological target: Bromodomain-containing protein 4 (Homo sapiens) (UniProt O60885); settings: Compound concentration 10.0 uM, Protein concentration 2.0 uM
[10] = biological target: Bromodomain-containing protein 2 (Homo sapiens) (UniProt P25440); settings: Compound concentration 10.0 uM, Protein concentration 2.0 uM
[11] = biological target: Bromodomain-containing protein 1 (Homo sapiens) (UniProt O95696); settings: Compound concentration 10.0 uM, Protein concentration 2.0 uM
[12] = biological target: Histone acetyltransferase KAT2A (Homo sapiens) (UniProt Q92830); settings: Compound concentration 10.0 uM, Protein concentration 2.0 uM
[13] = biological target: Bromodomain-containing protein 3 (Homo sapiens) (UniProt Q15059); settings: Compound concentration 10.0 uM, Protein concentration 2.0 uM
[14] = biological target: Bromodomain-containing protein 7 (Homo sapiens) (UniProt Q9NPI1); settings: Compound concentration 10.0 uM, Protein concentration 2.0 uM
[15] = biological target: Bromodomain-containing protein 2 (Homo sapiens) (UniProt P25440); settings: Compound concentration 10.0 uM, Protein concentration 2.0 uM; remark: listed apart in the source
[16] = biological target: Bromodomain testis-specific protein (Homo sapiens) (UniProt Q58F21); settings: Compound concentration 10.0 uM, Protein concentration 2.0 uM
Peregrin (Homo sapiens) [17] = biological target: T1, Peregrin (Homo sapiens); settings: Compound concentration 10.0 uM, Protein concentration 2.0 uM
[18] = biological target: Bromodomain testis-specific protein (Homo sapiens) (UniProt Q58F21); settings: Compound concentration 10.0 uM, Protein concentration 2.0 uM; remark: listed apart in the source
[19] = biological target: Nucleosome-remodeling factor subunit BPTF (Homo sapiens) (UniProt Q12830); settings: Compound concentration 10.0 uM, Protein concentration 2.0 uM
[20] = biological target: Transcription initiation factor TFIID subunit 1 (Homo sapiens) (UniProt P21675); settings: Compound concentration 10.0 uM, Protein concentration 2.0 uM
[21] = biological target: Bromodomain-containing protein 9 (Homo sapiens) (UniProt Q9H8M2); assay: Alphascreen assay. Domain start/stop: L14-Q143; settings: Compound concentration 0.25 uM, Protein concentration 5.0 uM
[22] = biological target: Bromodomain and WD repeat-containing protein 1 (Homo sapiens) (UniProt Q9NSI6); settings: Compound concentration 10.0 uM, Protein concentration 2.0 uM
[23] = biological target: Bromodomain and WD repeat-containing protein 3 (Homo sapiens) (UniProt Q6RI45); settings: Compound concentration 10.0 uM, Protein concentration 2.0 uM
[24] = biological target: Protein polybromo-1 (Homo sapiens) (UniProt Q86U86); settings: Compound concentration 10.0 uM, Protein concentration 2.0 uM; remark: listed apart in the source
[25] = biological target: Protein polybromo-1 (Homo sapiens) (UniProt Q86U86); settings: Compound concentration 10.0 uM, Protein concentration 2.0 uM; remark: listed apart in the source
[26] = biological target: SWI/SNF-related matrix-associated actin-dependent regulator of chromatin subfamily A member 2 (Homo sapiens) (UniProt P51531); settings: Compound concentration 10.0 uM, Protein concentration 2.0 uM
[27] = biological target: Protein polybromo-1 (Homo sapiens) (UniProt Q86U86); settings: Compound concentration 10.0 uM, Protein concentration 2.0 uM; remark: listed apart in the source
Peregrin (Homo sapiens) [28] = biological target: T1, Peregrin (Homo sapiens); settings: Compound concentration 10.0 uM, Protein concentration 2.0 uM; remark: listed apart in the source
[29] = biological target: CREB-binding protein (Homo sapiens) (UniProt Q92793); settings: Compound concentration 10.0 uM, Protein concentration 2.0 uM
[30] = biological target: Histone acetyltransferase p300 (Homo sapiens) (UniProt Q09472); settings: Compound concentration 10.0 uM, Protein concentration 2.0 uM
[31] = biological target: Protein polybromo-1 (Homo sapiens) (UniProt Q86U86); settings: Compound concentration 10.0 uM, Protein concentration 2.0 uM; remark: listed apart in the source
[32] = biological target: Chromatin remodeling regulator CECR2 (Homo sapiens) (UniProt Q9BXF3); settings: Protein concentration 19.0 uM
[33] = biological target: Bromodomain-containing protein 3 (Homo sapiens) (UniProt Q15059); settings: Compound concentration 10.0 uM, Protein concentration 2.0 uM; remark: listed apart in the source
[34] = biological target: Bromodomain-containing protein 9 (Homo sapiens) (UniProt Q9H8M2); settings: Compound concentration 10.0 uM, Protein concentration 2.0 uM
[35] = biological target: Bromodomain-containing protein 4 (Homo sapiens) (UniProt O60885); settings: Compound concentration 10.0 uM, Protein concentration 2.0 uM; remark: listed apart in the source
[36] = biological target: PH-interacting protein (Homo sapiens) (UniProt Q8WWQ0); settings: Compound concentration 10.0 uM, Protein concentration 2.0 uM
[37] = biological target: Bromodomain and PHD finger-containing protein 3 (Homo sapiens) (UniProt Q9ULD4); settings: Compound concentration 10.0 uM, Protein concentration 2.0 uM
[38] = biological target: Bromodomain adjacent to zinc finger domain protein 2B (Homo sapiens) (UniProt Q9UIF8); settings: Compound concentration 10.0 uM, Protein concentration 2.0 uM
[39] = biological target: Nuclear body protein SP140 (Homo sapiens) (UniProt Q13342); settings: Compound concentration 10.0 uM, Protein concentration 2.0 uM
[40] = biological target: Transcription initiation factor TFIID subunit 1-like (Homo sapiens) (UniProt Q8IZX4); settings: Compound concentration 10.0 uM, Protein concentration 2.0 uM
[41] = biological target: Chromatin remodeling regulator CECR2 (Homo sapiens) (UniProt Q9BXF3); settings: Compound concentration 10.0 uM, Protein concentration 2.0 uM
[42] = biological target: Transcription intermediary factor 1-alpha (Homo sapiens) (UniProt O15164); settings: Compound concentration 10.0 uM, Protein concentration 2.0 uM
[43] = biological target: Histone-lysine N-methyltransferase ASH1L (Homo sapiens) (UniProt Q9NR48); settings: Compound concentration 10.0 uM, Protein concentration 2.0 uM
[44] = biological target: Transcription intermediary factor 1-alpha (Homo sapiens) (UniProt O15164); settings: Compound concentration 10.0 uM, Protein concentration 2.0 uM; remark: listed apart in the source
[45] = biological target: Transcription initiation factor TFIID subunit 1 (Homo sapiens) (UniProt P21675); settings: Compound concentration 10.0 uM, Protein concentration 2.0 uM; remark: listed apart in the source
[46] = biological target: Protein polybromo-1 (Homo sapiens) (UniProt Q86U86); settings: Compound concentration 10.0 uM, Protein concentration 2.0 uM; remark: listed apart in the source
[47] = biological target: Transcription initiation factor TFIID subunit 1-like (Homo sapiens) (UniProt Q8IZX4); settings: Compound concentration 10.0 uM, Protein concentration 2.0 uM; remark: listed apart in the source
[48] = biological target: ATPase family AAA domain-containing protein 2B (Homo sapiens) (UniProt Q9ULI0); settings: Compound concentration 10.0 uM, Protein concentration 2.0 uM
[49] = biological target: Bromodomain adjacent to zinc finger domain protein 1A (Homo sapiens) (UniProt Q9NRL2); settings: Compound concentration 10.0 uM, Protein concentration 2.0 uM
[50] = biological target: Transcription intermediary factor 1-beta (Homo sapiens) (UniProt Q13263); settings: Compound concentration 10.0 uM, Protein concentration 2.0 uM
[51] = biological target: ATPase family AAA domain-containing protein 2 (Homo sapiens) (UniProt Q6PL18); settings: Compound concentration 10.0 uM, Protein concentration 2.0 uM
[52] = biological target: SWI/SNF-related matrix-associated actin-dependent regulator of chromatin subfamily A member 4 (Homo sapiens) (UniProt P51532); settings: Compound concentration 10.0 uM, Protein concentration 2.0 uM

Chain of Protein polybromo-1 (Homo sapiens) (Q86U86 whole entry): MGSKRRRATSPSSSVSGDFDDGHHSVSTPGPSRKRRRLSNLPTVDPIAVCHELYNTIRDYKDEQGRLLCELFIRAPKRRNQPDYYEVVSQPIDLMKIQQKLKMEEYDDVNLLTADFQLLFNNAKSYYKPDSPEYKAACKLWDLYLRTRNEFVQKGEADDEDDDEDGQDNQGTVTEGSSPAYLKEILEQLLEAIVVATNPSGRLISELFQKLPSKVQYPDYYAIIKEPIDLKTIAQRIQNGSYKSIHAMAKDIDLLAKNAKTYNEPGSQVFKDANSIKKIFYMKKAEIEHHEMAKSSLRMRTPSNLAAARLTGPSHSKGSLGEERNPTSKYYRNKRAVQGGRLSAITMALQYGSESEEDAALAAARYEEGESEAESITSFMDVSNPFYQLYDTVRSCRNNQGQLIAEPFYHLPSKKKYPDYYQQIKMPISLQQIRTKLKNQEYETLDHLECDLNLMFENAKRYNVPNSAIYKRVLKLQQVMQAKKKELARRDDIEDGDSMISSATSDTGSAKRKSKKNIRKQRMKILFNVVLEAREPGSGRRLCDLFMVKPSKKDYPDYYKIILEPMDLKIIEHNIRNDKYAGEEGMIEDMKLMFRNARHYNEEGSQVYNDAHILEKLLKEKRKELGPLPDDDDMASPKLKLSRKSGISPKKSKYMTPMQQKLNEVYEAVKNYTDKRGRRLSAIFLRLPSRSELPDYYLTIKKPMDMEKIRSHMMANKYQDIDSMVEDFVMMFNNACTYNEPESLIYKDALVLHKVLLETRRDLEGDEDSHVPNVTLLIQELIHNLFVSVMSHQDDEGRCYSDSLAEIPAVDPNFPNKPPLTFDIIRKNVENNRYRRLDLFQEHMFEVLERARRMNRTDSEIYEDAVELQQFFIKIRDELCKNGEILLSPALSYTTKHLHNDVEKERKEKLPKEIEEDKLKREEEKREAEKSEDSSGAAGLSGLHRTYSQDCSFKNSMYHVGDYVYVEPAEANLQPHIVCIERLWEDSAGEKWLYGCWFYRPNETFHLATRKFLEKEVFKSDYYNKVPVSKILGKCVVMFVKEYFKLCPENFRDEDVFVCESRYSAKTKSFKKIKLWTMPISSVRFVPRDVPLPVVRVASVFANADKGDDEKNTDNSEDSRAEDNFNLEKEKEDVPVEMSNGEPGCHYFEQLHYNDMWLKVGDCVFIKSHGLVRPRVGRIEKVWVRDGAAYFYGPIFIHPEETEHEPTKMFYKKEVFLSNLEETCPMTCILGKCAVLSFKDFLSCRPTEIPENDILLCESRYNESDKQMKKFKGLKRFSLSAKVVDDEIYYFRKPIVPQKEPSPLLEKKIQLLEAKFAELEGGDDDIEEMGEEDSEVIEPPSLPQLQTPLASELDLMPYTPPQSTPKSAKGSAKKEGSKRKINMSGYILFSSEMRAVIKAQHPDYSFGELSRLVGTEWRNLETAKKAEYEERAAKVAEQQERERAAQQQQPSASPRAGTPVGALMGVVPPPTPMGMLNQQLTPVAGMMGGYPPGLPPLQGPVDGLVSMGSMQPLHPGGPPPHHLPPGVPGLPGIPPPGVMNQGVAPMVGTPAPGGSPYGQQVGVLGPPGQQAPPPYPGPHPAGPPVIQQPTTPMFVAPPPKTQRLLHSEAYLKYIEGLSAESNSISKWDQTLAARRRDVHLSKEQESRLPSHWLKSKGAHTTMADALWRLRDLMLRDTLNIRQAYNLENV
Chain of Chromatin remodeling regulator CECR2 (Homo sapiens) (Q9BXF3 whole entry, looked up): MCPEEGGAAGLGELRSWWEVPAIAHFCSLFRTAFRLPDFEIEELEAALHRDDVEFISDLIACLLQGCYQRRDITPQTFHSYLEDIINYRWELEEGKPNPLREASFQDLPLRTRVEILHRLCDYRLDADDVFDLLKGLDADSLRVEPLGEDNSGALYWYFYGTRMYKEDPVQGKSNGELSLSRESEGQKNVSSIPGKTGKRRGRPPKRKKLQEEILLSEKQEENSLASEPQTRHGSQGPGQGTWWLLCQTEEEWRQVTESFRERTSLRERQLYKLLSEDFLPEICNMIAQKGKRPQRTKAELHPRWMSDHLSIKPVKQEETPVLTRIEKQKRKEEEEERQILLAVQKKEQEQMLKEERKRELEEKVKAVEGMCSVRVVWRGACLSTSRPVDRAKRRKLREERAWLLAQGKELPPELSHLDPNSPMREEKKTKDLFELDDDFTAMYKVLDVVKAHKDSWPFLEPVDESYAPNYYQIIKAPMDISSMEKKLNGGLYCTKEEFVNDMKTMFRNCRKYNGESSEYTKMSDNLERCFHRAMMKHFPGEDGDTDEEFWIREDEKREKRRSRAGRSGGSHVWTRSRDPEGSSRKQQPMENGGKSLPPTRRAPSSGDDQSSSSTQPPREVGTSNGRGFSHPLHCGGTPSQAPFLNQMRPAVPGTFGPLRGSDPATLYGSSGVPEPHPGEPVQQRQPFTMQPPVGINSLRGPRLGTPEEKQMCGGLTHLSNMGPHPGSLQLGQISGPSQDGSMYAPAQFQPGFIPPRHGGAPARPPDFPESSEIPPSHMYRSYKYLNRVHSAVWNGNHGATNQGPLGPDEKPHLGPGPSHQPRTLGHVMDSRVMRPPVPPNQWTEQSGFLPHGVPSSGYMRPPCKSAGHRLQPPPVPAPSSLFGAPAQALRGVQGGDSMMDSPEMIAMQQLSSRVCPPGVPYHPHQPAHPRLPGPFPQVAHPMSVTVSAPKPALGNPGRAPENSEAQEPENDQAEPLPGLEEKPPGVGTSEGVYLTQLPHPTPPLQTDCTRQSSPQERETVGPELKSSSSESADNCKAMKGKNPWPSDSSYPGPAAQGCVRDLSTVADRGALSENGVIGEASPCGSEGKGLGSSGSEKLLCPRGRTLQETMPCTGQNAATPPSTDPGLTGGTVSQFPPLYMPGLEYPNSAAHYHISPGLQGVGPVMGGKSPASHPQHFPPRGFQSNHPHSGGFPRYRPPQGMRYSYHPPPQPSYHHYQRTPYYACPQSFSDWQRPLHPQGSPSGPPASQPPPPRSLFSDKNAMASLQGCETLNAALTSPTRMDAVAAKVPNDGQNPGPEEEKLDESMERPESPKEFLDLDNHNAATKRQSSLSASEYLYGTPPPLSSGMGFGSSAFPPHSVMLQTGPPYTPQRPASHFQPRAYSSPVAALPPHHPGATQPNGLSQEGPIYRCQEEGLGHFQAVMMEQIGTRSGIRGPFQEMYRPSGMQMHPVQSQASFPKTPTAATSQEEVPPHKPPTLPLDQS
Chain of Transcription intermediary factor 1-alpha (Homo sapiens) (O15164 whole entry): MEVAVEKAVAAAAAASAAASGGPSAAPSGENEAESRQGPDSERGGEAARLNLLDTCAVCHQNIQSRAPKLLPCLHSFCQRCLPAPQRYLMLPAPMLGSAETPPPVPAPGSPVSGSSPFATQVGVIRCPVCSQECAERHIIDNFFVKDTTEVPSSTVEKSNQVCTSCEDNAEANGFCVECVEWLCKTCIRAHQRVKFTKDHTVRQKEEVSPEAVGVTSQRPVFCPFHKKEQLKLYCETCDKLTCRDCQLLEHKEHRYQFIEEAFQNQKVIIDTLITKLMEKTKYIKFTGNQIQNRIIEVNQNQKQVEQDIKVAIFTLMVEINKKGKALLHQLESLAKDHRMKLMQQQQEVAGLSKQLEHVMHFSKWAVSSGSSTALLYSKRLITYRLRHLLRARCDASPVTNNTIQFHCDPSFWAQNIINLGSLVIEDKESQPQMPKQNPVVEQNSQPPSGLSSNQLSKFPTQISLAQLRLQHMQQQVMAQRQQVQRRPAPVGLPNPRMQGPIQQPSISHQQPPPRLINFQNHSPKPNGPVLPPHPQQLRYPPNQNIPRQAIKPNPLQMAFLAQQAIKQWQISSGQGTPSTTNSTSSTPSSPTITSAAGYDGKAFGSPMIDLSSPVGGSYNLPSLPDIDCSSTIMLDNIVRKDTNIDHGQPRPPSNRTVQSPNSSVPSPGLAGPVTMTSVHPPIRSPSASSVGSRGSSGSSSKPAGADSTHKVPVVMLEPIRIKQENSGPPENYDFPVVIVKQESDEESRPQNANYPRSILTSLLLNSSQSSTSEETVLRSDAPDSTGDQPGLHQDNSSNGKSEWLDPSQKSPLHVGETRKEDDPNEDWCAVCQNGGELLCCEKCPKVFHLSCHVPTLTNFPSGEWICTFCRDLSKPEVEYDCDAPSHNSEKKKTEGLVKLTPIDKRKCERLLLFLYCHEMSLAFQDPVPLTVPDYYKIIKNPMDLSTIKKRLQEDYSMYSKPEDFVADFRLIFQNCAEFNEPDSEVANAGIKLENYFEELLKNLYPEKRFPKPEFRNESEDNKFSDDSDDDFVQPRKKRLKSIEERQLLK
Chain of Bromodomain-containing protein 3 (Homo sapiens) (Q15059 2-726 limits assumed): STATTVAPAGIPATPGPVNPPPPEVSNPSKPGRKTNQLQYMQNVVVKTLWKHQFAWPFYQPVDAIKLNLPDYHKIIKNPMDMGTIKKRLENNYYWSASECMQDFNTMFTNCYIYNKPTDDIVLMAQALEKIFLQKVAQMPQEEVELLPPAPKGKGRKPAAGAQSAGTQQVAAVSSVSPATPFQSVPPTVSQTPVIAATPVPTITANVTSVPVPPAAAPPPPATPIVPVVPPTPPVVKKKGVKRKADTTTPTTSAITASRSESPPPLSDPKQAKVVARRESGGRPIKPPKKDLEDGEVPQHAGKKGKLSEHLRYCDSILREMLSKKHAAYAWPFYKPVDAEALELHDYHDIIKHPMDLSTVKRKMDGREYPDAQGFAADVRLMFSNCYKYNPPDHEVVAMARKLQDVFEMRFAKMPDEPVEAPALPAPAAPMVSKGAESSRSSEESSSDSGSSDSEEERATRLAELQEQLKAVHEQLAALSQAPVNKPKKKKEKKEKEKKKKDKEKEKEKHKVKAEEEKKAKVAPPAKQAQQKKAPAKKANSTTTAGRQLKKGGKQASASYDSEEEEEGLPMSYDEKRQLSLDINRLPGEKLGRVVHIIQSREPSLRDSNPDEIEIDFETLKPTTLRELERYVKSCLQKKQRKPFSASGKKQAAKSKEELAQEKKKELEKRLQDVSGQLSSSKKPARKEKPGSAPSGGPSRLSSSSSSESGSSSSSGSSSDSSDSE

CCn1cc(-c2cccc(C(F)(F)F)c2)c2sc(C(=N)NC3CCS(=O)(=O)CC3)cc2c1=O
ΔTm [1]: 0.69 °C | ΔTm [2]: 0.44 °C | ΔTm [3]: 0.68 °C | ΔTm [4]: 3 °C | ΔTm [5]: 0.36 °C | inhibition ([6]; Compound concentration 0.25 uM, Protein concentration 20.0 uM): -2.87% | inhibition ([6]; Compound concentration 4.0 uM, Protein concentration 19.0 uM): -1.93% | ΔTm [7]: 0.67 °C | inhibition (Peregrin (Homo sapiens) [8]): 18.8% | ΔTm [9]: 3.6 °C | ΔTm [10]: 2.54 °C | ΔTm [11]: 0.98 °C | ΔTm [12]: 1.26 °C | ΔTm [13]: 2.77 °C | ΔTm [14]: 11.1 °C | ΔTm [15]: 1.39 °C | ΔTm [16]: 1.37 °C | ΔTm (Peregrin (Homo sapiens) [17]): 2.66 °C | ΔTm [18]: 1.74 °C | ΔTm [19]: 0.58 °C | ΔTm [20]: 0.49 °C | inhibition [21]: 94.3% | ΔTm [22]: 0.71 °C | ΔTm [23]: 2.31 °C | ΔTm [24]: 0.36 °C | ΔTm [25]: 0.36 °C | ΔTm [26]: 0.72 °C | ΔTm [27]: 0.63 °C | ΔTm (Peregrin (Homo sapiens) [28]): 1.32 °C | ΔTm [29]: 5.94 °C | ΔTm [30]: 6.07 °C | ΔTm [31]: 0.74 °C | inhibition ([32]; Compound concentration 0.25 uM): 4.99% | inhibition ([32]; Compound concentration 4.0 uM): 99.5% | ΔTm [33]: 1.79 °C | ΔTm [34]: 14.4 °C | ΔTm [35]: 1.92 °C | ΔTm [36]: 0.95 °C | ΔTm [37]: 1.17 °C | ΔTm [38]: 0.84 °C | ΔTm [39]: 1.36 °C | ΔTm [40]: 0.9 °C | ΔTm [41]: 9.43 °C | ΔTm [42]: 1.86 °C | ΔTm [43]: 1.17 °C | ΔTm [44]: 1.09 °C | ΔTm [45]: 0.5 °C | ΔTm [46]: 0.54 °C | ΔTm [47]: 0.59 °C | ΔTm [48]: 0.97 °C | ΔTm [49]: 0.42 °C | ΔTm [50]: 0.66 °C | ΔTm [51]: 0.99 °C | ΔTm [52]: 0.68 °C
